From patent publication EP0301034B1, “USE OF 1-(3'TRIFLUOROMETHYL 4'-NITROPHENYL) 4,4-DIMETHYL IMIDAZOLINE 2, 5-DIONE IN THE MANUFACTURE OF A MEDICAMENT FOR THE TREATMENT OF HORMONE-DEPENDENT CANCERS OTHER THAN CANCERS OF THE PROSTATE, THE SKIN AND THE COLON” (ROUSSEL-UCLAF, priority 1986, dated 1988) come the findings set out here.

Test [1] has as its system cellules tumorales mammaires MCF-7. Briefly: Antiproliferative activity on growth of MCF-7 mammary tumour cells (DNA assay with DABA fluorimetry). In kind it is cell-based. The note with it: 10⁻⁵M; end of experiment J6; SVF medium; inhibition of DNA increase. The protocol:
(§1) L'activité de la 1-(3'-trifluorométhyl 4'-nitrophényl) 4,4-diméthyl imidazoline 2,5-dione a été déterminée par la mesure de son activité antiproliférative sur la croissance de cellules tumorales mammaires MCF-7 et T 47-D.
(§2) Les lignées MCF-7 et T 47-D sont maintenues en culture en milieu SVF (1) à 37 °C en atmosphère humide contenant 5% CO₂. Les cellules à subconfluence sont récoltées par trypsination (trypsine 0,05%, EDTA 0,02%) puis rincées par centrifugation douce. Un échantillon des cellules en suspension est compté sur cellule de Malassez.
(§3) Les cellules resuspendues dans le milieu SVF sont ensemencées à raison de 30.000 cellules par puits dans des plaques multipuits (24 puits de 2,5 cm2). […]
(§4) L'ADN est dosé par une méthode fluorimétrique utilisant le DABA (Acide 3,5 diaminobenzoïque) (2) 150 microlitres de DABA sont ajoutés dans chaque puits; les plaques sont alors incubées 45 mn à 56°C, puis 1,5 ml d'HCl 1N sont ajoutés. La fluorescence est mesurée à l'aide de fluorimètre (longueur excitatrice : 400 nm, longueur d'onde d'émission : 500 nm). La quantité d'ADN par puits est évaluée par rapport à une gamme étalon obtenue en traitant dans les mêmes conditions un standard d'ADN du thymus de veau.

Test [2] has as its system cellules tumorales mammaires T 47-D. Nature of the test: Antiproliferative activity on growth of T 47-D mammary tumour cells (DNA assay with DABA fluorimetry). In kind it is cell-based. The conditions noted are these: 10⁻⁵M; end of experiment J12; SVF medium; inhibition of DNA increase. How it is done: as §1, §2, §3, §4

Molecules are shown by their SMILES.

As for `CC1(C)NC(=O)N(c2ccc([N+](=O)[O-])c(C(F)(F)F)c2)C1=O` [1-(3'trifluorométhyl 4'-nitrophényl) 4,4-diméthyl imidazoline 2,5-dione], the “inhibe la croissance des cellules MCF-7” value in test [1] came to 30%. Further, the “inhibe la croissance des cellules T 47-D” value in test [2] worked out at 30%.
